Results published in patent publication US20180228158A1, “COMPOSITIONS AND METHODS FOR CONTROL OF DISEASE” (Monsanto Technology LLC, priority 2017, published 2018).

Experiments:
[1] = test system: soybean sudden death syndrome (fungi of the genus Fusarium); assay: Field trial against soybean sudden death syndrome (seed treatment); assay type: in vivo, Fusarium virguliforme; parameters: key to SDS incidence: % of affected plants; SDS severity: scale not given here; conditions: for SDS severity: average severity of symptoms in the plots at harvest time; for SDS incidence: percentage of affected plants at harvest time in the fall
Procedure: (§1) A field trial was conducted to determine the efficacy of compounds as described herein against soybean sudden death syndrome. Soybean seeds were planted at the start of the spring growing season in a location where fungi of the genus Fusarium were endemic. Nothing special was done to encourage growth of the fungus or development of the SDS disease.
(§2) Compounds listed in Table 1 below were used to treat soybean seeds prior to planting.
(§3) Seeds treated with oxamyl, at a rate of 1 mg per seed, and non-treated seeds (NT) were included as controls.
(§4) Other typical agronomic data, including counts of soybean cyst nematode (SCN) eggs, were also collected throughout the trial. The percentage of affected plants and the observed SDS disease severity are graphically depicted in FIGS. 1 and 2, respectively.

[2] = test system: soybean cyst nematode (SCN); assay: Field trial: counts of soybean cyst nematode (SCN) eggs; assay type: in vivo; conditions: for Fall Eggs/100 cc: SCN egg count in fall; for Spring Eggs/100 cc: SCN egg count in spring; for Mean RF: SCN eggs
Procedure: as §1, §2, §3, §4

[3] = soybean seed treatment 0.5 mg/seed
[4] = soybean seed treatment 1 mg/seed

Structure (SMILES)	SDS severity [1, 3]	SDS incidence [1, 3]	SDS severity [1, 4]	SDS incidence [1, 4]	Fall Eggs/100 cc [2, 3] [eggs/100 cc]	Spring Eggs/100 cc [2, 3] [eggs/100 cc]	Mean RF [2, 3]	Fall Eggs/100 cc [2, 4] [eggs/100 cc]	Spring Eggs/100 cc [2, 4] [eggs/100 cc]	Mean RF [2, 4]
c1ccc(-c2noc(-c3cccs3)n2)cc1 [DC1822]	2	45	1.5	28.75	2600	1175	3.875	2100	700	6.425
Clc1ccc(-c2noc(-c3ccco3)n2)cc1 [DC5523]	2	47.5	2	26.25	1925	675	5.35	1725	800	4.325
Cc1cc(Cl)ccc1-c1noc(-c2ccco2)n1 [DC5823]	2.25	55	2.5	46.25	3325	1075	3.35	1100	1450	1.625
CNC(=O)O/N=C(\SC)C(=O)N(C)C [Oxamyl, oxamyl, reference compound]	–	–	1.5	32.5	–	–	–	3075	1050	6.65
